These results are taken from PMC7875911 (Frontiers in Pharmacology, 2021).

For test [1], the target named is T1, hCav2.2 (Homo sapiens, UniProt Q00975).
T1 construct: expressed in transfected cells; host or cells: HEK293 (HEK293T), transient calcium phosphate co-transfection
Kind of test: cell-based. As for the experimental part:
(§1) Human embryonic kidney (HEK293T) cells containing the SV40 Large T-antigen were cultured at 37°C, 5% CO2 in Dulbecco’s Modified Eagle’s Medium (DMEM, Invitrogen Life Technologies, Australia), supplemented with 10% fetal bovine serum (FBS, Bovigen, Australia), 1% GlutaMAX and penicillin-streptomycin (Invitrogen, Australia). HEK293 cells were then transiently co-transfected with the different voltage-gated calcium channel isoforms and green fluorescent protein (GFP) for visualization, using the calcium phosphate method. cDNAs encoding mCav1.2 (a gift from Dr. D. Lipscombe; Addgene plasmid #26572) ([Helton et al., 2005]), rCav1.3 (a gift from Dr. D. Lipscombe; Addgene plasmid # 49,333) ([Xu and Lipscombe, 2001]), hCav2.1 (a gift from Dr. J. Striessnig), rCav2.2 (a gift from Dr. D. Lipscombe), hCav2.2 (a gift from Dr. D. Yue), hCav2.3 (purchased from GenScript United States Inc.) were co-transfected with β3, α2δ1 and GFP. After transfection, cells were plated on 12 mm cover glass and transferred to a 30°C incubator for 1–3 days.
Depolarization-activated Ca^2+ currents (ICa) in transfected HEK293 cells were recorded in the whole-cell patch clamp configuration. Data were recorded using a MultiClamp 700B amplifier, digitized with a DigiData1440 and controlled using Clampex10.7 software (Molecular Devices, United States). Currents were sampled at 100 kHz and filtered to 10 kHz, with leak and capacitive currents subtracted using a −P/4 protocol. […] Intracellular recording solution contained as follows (mM): 140 KGluconate, 5 NaCl, 2 MgCl2, 5 EGTA and 10 HEPES, pH 7.2 with KOH. Cells were continuously perfused with extracellular solution at a rate of ∼1.2 ml/min. […]
(§2) Statistical significance (p < 0.05) was determined using unpaired Student’s t-test or 1-way ANOVA followed by a Tukey multiple comparison. […]
(§3) Numerous HVA Cav channel isoforms are present in rat DRG neurons. […] We transiently co-transfected the individual Cav channel α-subunits of interest together with β3 and α2δ1 subunits in HEK293 cells and measured whole-cell I Ca currents by patch clamp. […]

For test [2], the system named is hCav2.1. The experiment in a line: Whole-cell patch clamp, recombinant hCav2.1 in HEK293. To be noted: 10 µM. The test is classed as cell-based, human. As for the experimental part:
(§4) Human embryonic kidney (HEK293T) cells containing the SV40 Large T-antigen were cultured at 37°C, 5% CO2 in Dulbecco’s Modified Eagle’s Medium (DMEM, Invitrogen Life Technologies, Australia), supplemented with 10% fetal bovine serum (FBS, Bovigen, Australia), 1% GlutaMAX and penicillin-streptomycin (Invitrogen, Australia). […]
(§5) Depolarization-activated Ca^2+ currents (ICa) in transfected HEK293 cells were recorded in the whole-cell patch clamp configuration. Data were recorded using a MultiClamp 700B amplifier, digitized with a DigiData1440 and controlled using Clampex10.7 software (Molecular Devices, United States). […]
as §2, §3
A general note: In patch-clamp work, channel activity is measured electrically.

In test [3] the test system is Cav1.2, Cav1.3, Cav2.1, and Cav2.2. As for the experimental part:
as §4, §5, §2, §3

Test [4] relates to rCav2.2. Kind of test: Whole-cell patch clamp, recombinant rCav2.2 in HEK293. Conditions: 10 µM. The test is classed as cell-based, rat. Here is the method: as §4, §5, §2, §3
The subject of test [5] is HVA I Ca in small-diameter IB4 ^− DRG neurons. Kind of test: cells. Here is the method: Spinal level L3–L5 DRG were removed and placed in ice-cold HEPES-buffered saline (HBS) composed of (in mM): 154 NaCl, 2.5 KCl, 1.8 CaCl2, 1.5 MgCl2, 10 HEPES, and 10 glucose (pH 7.4, 330 ± 5 mOsm). Iridectomy scissors were utilized to cut up ganglia before incubation at 37°C for 15 min in oxygenated HBS containing 5 mg ml^−1 collagenase type 2 (Worthington Biochemical Corp, Lakewood, NJ, United States) followed by 25 min in oxygenated HBS containing 1 mg ml^−1 papain (Worthington Biochemical Corp). […] After enzyme treatment, ganglia were placed in 3 ml of HBS following two room temperature HBS washes. Ganglia were then triturated through fire-polished Pasteur pipettes with decreasing bores to extract cells. Finally, the cells mixed in HBS were plated onto surface modified culture dishes (Corning Primaria™ easy grip). […] DRG cells were pre-treated with 1 μg ml^−1 Alexa Fluor 488-conjugated Bandeiraea simplicifolia IB4 (Invitrogen) for 5 min at room temperature and washed with HBS for 5 min before fluorescence was examined on the inverted microscope (Olympus, IX50) used for patch clamp recordings.
Cell size was determined from an eyepiece graticule. Whole-cell electrophysiology was conducted at room temperature (22–24°C) in culture dishes perfused with room temperature HBS. The intracellular pipette solution contained (mM): 120 CsCl, 10 HEPES, 10 EGTA, 2 CaCl2, 5 MgATP, 5 Na2GTP, 5 NaCl; pH 7.3 (CsOH); 285 ± 5 mos mol l^−1.
(§6) An EPC-9 patch-clamp amplifier and corresponding PULSE software from HEKA Electronik (Lambrecht/Pfalz, Germany) were used to make recordings. Currents were sampled at 50 kHz and recorded on a hard disk. Borosilicate glass from AM Systems, Everett, WA, United States were used for patch pipettes. The input resistance of the pipettes ranged from 2 to 4 MΩ. […] A built-in procedure of the HEKA amplifier compensated for the capacitive transient currents. A −P/6 protocol was utilized to subtract leak current online. I Ca was generated with the recording protocol which included a depolarization from a holding potential of −80 mV to 0 mV for 10 ms every 30 s. I Na was generated through a recording protocol which included a step depolarization from a holding potential of −80 mV to 0 mV for 10 ms at a frequency of 0.1 Hz. Cells were perfused with the test compound via a pressure driven perfusion system (AutoMate Scientific, United States).
All data analysis and graphs were generated in OriginPro (Origin Lab Corporation, United States). […] Activation and SSI curves were fit by the modified Boltzmann equation: I or G=1/(1+exp(Vm−V0.5/ka)) Where I is the current or G is the conductance, Vm is the pre-pulse potential, V 0.5 is the half-maximal activation potential and ka is the slope factor.
Statistical significance (p < 0.05) was determined using unpaired Student’s t-test or 1-way ANOVA followed by a Tukey multiple comparison. All data is presented as mean ± SEM (n), where n is individual cells.

Test [6] relates to mouse models of acute postsurgical pain. Conditions: in vivo; cited from earlier work.
The target of test [7] is T1, hCav2.2. Kind of test: hCav2.2 steady-state inactivation (SSI). The format is cell-based. As for the experimental part: as §1, with “After transfection, cells were plated on 12 mm cover glass and transferred to a 30°C incubator for 1–3 days.” left out
as §5, §2

In test [8] the test system is c-fibre evoked excitatory post-synaptic currents. Conditions: cited from earlier work.
Test [9] concerns the target hNav1.7 (Homo sapiens, UniProt Q15858). The format is cell-based.
From the text: as §6

Structures are written as SMILES. Several values for one entry are separate records, joined by “and”; a condition that tells them apart may be missing. Identical values can stand only once. Like-named read-outs stand apart in the source and are kept apart here.

Broadly, the inhibition is the drop in the measured response relative to a control, in per cent.

hNav1.7, sequence (Q15858 whole entry): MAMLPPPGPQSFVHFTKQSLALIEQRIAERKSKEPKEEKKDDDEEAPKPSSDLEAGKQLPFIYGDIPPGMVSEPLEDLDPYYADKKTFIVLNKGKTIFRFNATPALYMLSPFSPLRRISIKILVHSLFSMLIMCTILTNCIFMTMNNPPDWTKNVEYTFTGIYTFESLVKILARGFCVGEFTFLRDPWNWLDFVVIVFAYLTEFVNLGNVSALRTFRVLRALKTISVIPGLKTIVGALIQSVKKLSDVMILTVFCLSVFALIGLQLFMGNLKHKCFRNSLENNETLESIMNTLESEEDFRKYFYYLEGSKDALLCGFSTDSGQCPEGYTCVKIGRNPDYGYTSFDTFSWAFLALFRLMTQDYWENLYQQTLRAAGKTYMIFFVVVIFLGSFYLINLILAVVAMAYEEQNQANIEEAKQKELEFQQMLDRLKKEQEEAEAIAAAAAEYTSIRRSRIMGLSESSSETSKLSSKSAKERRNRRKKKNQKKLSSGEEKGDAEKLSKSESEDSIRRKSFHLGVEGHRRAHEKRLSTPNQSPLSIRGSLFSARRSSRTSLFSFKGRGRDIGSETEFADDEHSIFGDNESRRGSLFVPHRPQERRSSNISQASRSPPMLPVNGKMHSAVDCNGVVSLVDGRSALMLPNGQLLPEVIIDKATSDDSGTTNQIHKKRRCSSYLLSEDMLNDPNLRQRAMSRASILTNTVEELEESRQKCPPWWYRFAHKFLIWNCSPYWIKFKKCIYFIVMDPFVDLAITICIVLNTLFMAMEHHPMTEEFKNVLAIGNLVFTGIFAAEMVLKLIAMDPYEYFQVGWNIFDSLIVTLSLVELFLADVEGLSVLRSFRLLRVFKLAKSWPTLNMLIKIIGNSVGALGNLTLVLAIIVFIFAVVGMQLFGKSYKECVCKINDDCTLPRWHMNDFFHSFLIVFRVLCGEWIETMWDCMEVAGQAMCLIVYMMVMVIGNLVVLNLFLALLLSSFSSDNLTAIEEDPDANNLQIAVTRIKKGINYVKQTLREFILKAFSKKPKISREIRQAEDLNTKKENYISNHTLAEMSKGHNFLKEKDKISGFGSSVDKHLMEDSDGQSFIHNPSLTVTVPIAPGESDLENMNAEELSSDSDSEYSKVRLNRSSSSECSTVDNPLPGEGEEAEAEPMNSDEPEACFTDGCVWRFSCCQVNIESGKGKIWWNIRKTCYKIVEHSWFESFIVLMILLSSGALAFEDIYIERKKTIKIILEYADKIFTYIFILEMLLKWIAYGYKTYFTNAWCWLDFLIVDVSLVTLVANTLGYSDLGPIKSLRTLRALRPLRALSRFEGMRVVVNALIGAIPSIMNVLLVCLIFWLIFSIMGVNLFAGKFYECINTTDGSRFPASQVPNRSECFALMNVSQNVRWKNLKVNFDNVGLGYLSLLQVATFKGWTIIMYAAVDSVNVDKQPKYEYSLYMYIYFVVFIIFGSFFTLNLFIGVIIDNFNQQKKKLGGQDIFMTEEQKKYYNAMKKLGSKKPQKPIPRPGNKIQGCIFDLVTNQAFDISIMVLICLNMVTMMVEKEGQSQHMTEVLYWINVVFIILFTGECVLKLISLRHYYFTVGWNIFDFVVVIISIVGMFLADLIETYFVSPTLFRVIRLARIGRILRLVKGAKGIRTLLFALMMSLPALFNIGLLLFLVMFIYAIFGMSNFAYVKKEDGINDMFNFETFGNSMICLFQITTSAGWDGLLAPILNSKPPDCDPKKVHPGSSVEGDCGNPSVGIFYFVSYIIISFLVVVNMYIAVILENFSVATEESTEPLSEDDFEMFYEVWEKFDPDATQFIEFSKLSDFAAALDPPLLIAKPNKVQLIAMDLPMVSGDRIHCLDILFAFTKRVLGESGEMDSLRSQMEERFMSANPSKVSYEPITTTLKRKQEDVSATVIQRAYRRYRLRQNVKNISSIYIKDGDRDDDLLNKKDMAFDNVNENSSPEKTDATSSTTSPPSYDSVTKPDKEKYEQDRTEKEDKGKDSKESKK

For `CSCC[C@@H]1NC(=O)[C@H](Cc2ccc(O)cc2)NC(=O)[C@H](CCCNC(=N)N)NC(=O)[C@@H](NC(=O)[C@@H](N)CC(=O)O)CSSC[C@@H]2NC(=O)[C@@H]3CSSC[C@@H](C(=O)N[C@@H](C)C(=O)N[C@@H](Cc4c[nH]c5ccccc45)C(=O)N[C@@H](CC(=O)O)C(=O)N[C@@H](Cc4ccccc4)C(=O)N[C@H](C(=O)N[C@@H](Cc4ccccc4)C(=O)N[C@H](C(=O)O)[C@@H](C)O)[C@@H](C)O)NC(=O)[C@H](Cc4ccc(O)cc4)NC(=O)[C@H](CCCCN)NC(=O)[C@H](CCSC)NC(=O)[C@H](CCCCN)NC(=O)[C@H](CCCNC(=N)N)NC(=O)[C@H](CCCCN)NC(=O)[C@H](CSSC[C@H](NC(=O)[C@H](CC(=O)O)NC(=O)CNC(=O)[C@H](Cc4ccccc4)NC1=O)C(=O)N[C@@H](CCC(=O)O)C(=O)N[C@@H](CCCCN)C(=O)N[C@@H](CC(=O)O)C(=O)N[C@@H](CCC(=O)O)C(=O)N[C@@H](CC(=O)O)C(=O)N3)NC(=O)CNC(=O)[C@H](CC(C)C)NC(=O)[C@H](Cc1c[nH]cn1)NC(=O)[C@H](CCCCN)NC2=O` [Pn3a, µ-Theraphotoxin-Pn3a], in [1], the “Hill coefficient n H” value is reported as 1.16 ± 0.07 and the “effect on depolarization-activated hCav2.2 current kinetics (in words)” value is given as “not altered”. Also, the inhibition at 10 µM in test [1] (HEK293, read-out: inhibition of human Cav2.2-mediated current) is 71.8 ± 0.6%. Also, in test [2], the “inhibition of Cav2.1-mediated current” value came to 58.0 ± 1.8%. Moreover, the “reversibility of block on washout” value in [3] is “fully reversible upon washout”. Moreover, the “inhibition of rat Cav2.2-mediated current” value in test [4] is given as 69.5 ± 1.0%. Also, in test [5], the “HVA I Ca spared” value is reported as “half”, the “inhibition of HVA I Ca” value stood at 4.45 ± 0.78% and the “suppression of I Ca” value stood at 13.97 ± 1.39%. In addition, the “inhibition of HVA I Ca” value in test [5] (10 µM) was ~55% and 56.5 ± 1.9%. The “antinociceptive behavior in acute postsurgical pain (in words)” value in test [6] is on record as “causes antinociceptive behavior”. Further, in test [7], the “V0.5 of steady-state inactivation” value is −69.8 ± 0.3 mV and the “slope factor ka of steady-state inactivation” value was found to be 10.5 ± 0.3. In addition, the “effect on c-fibre evoked excitatory post-synaptic currents (in words)” value in test [8] is on record as “reduce c-fibre evoked excitatory post-synaptic currents”. Also, in test [9], the “concentration at which inhibition is reliably distinguished from current rundown” value is recorded as > 10 nM, the “difference in hNav1.7 potency from reported value” is recorded as ~30 fold and the “reversibility of hNav1.7 inhibition” value is listed as “virtually irreversible at higher concentrations”.
